Source: PMC9465178, “Cinnamaldehyde derivatives act as antimicrobial agents against Acinetobacter baumannii through the inhibition of cell division” (Frontiers in Microbiology, 2022)
In brackets after ≈: the same amount, converted by molar mass. Read-outs that look alike come from different tables or passages of the source. Peptide text beside a SMILES is read from it. * marks the point of attachment. βNA = c1ccc2cc(N*)ccc2c1

Legend:
human red blood cells = assay: Hemolysis assay; format: cell-based
Procedure: The hemolysis assay was performed using fresh human red blood cells (RBCs). […] These were performed in quadruplicate. Thereafter, 192 μL RBCs were added into all wells and the plates were incubated at 37°C under constant shaking (100 rpm) for 1 h. RBCs were precipitated by centrifugation of the plates (1,000× g for 3 min). An aliquot (100 μL) of each supernatant was transferred into a new 96-microwell plate and the A450 nm was determined using a PerkinElmer Enspire® plate reader. The fraction of intact RBC for each sample was determined as fraction of the intact RBCs for the sample without the addition of compounds (set at 100%) and plotted as a function of compound concentration.
A 1% (v/v) Triton X-100 was used to indicate complete RBC lysis (^‡). […] The assays were performed in quadruplicates. The plates were incubated at 37°C while constantly shaking at 100 rpm for 1 h. Intact RBCs were removed by centrifugation and the presence of hemolytic products in the supernatant were determined by measuring the absorbance at A450 nm. The results are presented in mean ± SEM. Statistical analysis was performed using one-way ANOVA and the asterisks (*) represent statistical significance (*p < 0.05; **p < 0.005; ***p < 0.0005; ****p < 0.0001).

A. baumannii ATCC 19606 [1] = assay: MIC, microbroth dilution (EUCAST); format: cell-based, Acinetobacter baumannii
Procedure: (§1) Reference bacterial strains were obtained from the American Type Culture Collection (ATCC). Vancomycin resistant Enterococcus faecium (VRE 734, wastewater isolate from the Venter Laboratory Collection) was isolated on Bile Esculin agar (Oxoid, Australia) containing 6 μg/mL vancomycin and identified using MALDI-TOF mass spectrometry (Bruker, Preston, Victoria, Australia, Australian Center for Antimicrobial Resistance Ecology). The Pseudomonas aeruginosa WT PAO1 and Escherichia coli with deletions of both acrA and acrB genes encoding drug efflux pumps were obtained from the Venter laboratory stock ([Welch et al., 2010]). The protocol for microbial growth was adopted from the European Committee on Antimicrobial Susceptibility Testing (EUCAST) ([European Committee for Antimicrobial Susceptibility Testing, 2016]).
(§2) Non-fastidious bacteria and clinical isolates were maintained in Mueller Hinton (MH) broth (Acumedia, United Kingdom) supplemented with 15% (v/v) glycerol (Chem-Supply, Australia), cultured on Mueller Hinton (MH) agar (Acumedia, United Kingdom) plated and incubated at 37°C. Fastidious bacteria were maintained in Brain Heart Infusion (BHI) broth (Acumedia, United Kingdom) supplemented with 15% (v/v) glycerol at −80°C. The fastidious bacteria were cultured on MH agar plates supplemented with 5% (v/v) lysed horse blood and 3% (v/v) fetal bovine serum and incubated at 30°C in the presence of 5% CO2. Drug susceptibility assays were carried out with the non-fastidious cultures grown in cation-adjusted Mueller Hinton (CaMH) broth (Becton Dickinson, France). Streptococcus pyogenes was grown in CaMH broth supplemented with 5% (v/v) lysed horse blood and 3% (v/v) fetal bovine serum whereas Enterococcus faecium was grown in BHI broth.
(§3) The minimum inhibitory concentrations (MICs) for all six compounds were determined using the microbroth dilution protocol as per EUCAST with an inoculum of approximately […] in an exponential growth phase ([European Committee for Antimicrobial Susceptibility Testing, 2016]). Bacterial suspension, 100 μL/well, was added to 100 μL/well of drug dilutions, then incubated for 18 h at 37°C. Fastidious bacterial suspensions were instead incubated at 30°C in the presence of 5% CO2. Bacterial growth was assessed by measuring the change in A600 nm between time 0 and 18 h (Cytation5® Cell Imaging Multi-Mode Reader, Bio-Tek®). Levofloxacin was used as the positive control. Assays were completed in duplicate in at least three independent experiments.

A. baumannii XDR UW 5075 = assay: MIC, microbroth dilution (EUCAST); format: cell-based, Acinetobacter baumannii
Procedure: as §1, §2, §3

A. baumannii ATCC 19606 [2] = assay: Cell division phenotype by light microscopy; format: cell-based, Acinetobacter baumannii; conditions: divin at 64 μg/mL
Procedure: Morphological changes of bacteria when exposed to the compounds were assessed microscopically using the assay as previously described ([Chai et al., 2020]). Eppendorf® tubes were set up with A. baumannii ATCC 19606 as described for the time-kill assays. At time 0, 1, 3, 6, and 18 h, an aliquot of the bacterial suspension (1 μL) was transferred onto a glass slide and viewed under a light microscope (Olympus CX33®) at 100 × magnification. Representative images were captured using JENOPTIK GRYPHAX® imaging.
A 1 μL aliquot was taken out at varying timepoints (0, 1, 3, 6, and 18 h) and imaged by light microscopy. The images for 6 h are depicted here. […] The white arrow indicates “grooving” site, an indication of where separation of daughter cells should take place. Scale bar is 50 μm.
Four of the compounds (LXC 31, 33, 35 and 41) were tested at 1× and 2× their minimum inhibitory concentration (MIC) whereas LXC 36 and 43 were tested at 2× and 4× MIC. The phenotypic changes in A. baumannii morphology were analysed under a light microscope (100× magnification) at time 0, 1, 3, 6 and 18 h. Scale bar is 50 µm.

[3] = test system: Escherichia coli ATCC 35218; assay: Antibacterial activity (MIC), microbroth dilution; format: cell-based; conditions: ATCC35218; Escherichia coli ATCC 35218; unit inferred; read-out: Antibacterial activity (MIC)
Procedure: as §1, §2, §3

[4] = test system: Enterobacter aerogenes ATCC 13408; assay: Antibacterial activity (MIC), microbroth dilution; format: cell-based; conditions: Klebsiella aerogenes, ATCC13408; Enterobacter aerogenes ATCC 13408; unit inferred; read-out: Antibacterial activity (MIC)
Procedure: as §1, §2, §3

[5] = test system: Pseudomonas aeruginosa ATCC 27853; assay: Antibacterial activity (MIC), microbroth dilution; format: cell-based; conditions: ATCC27853; Pseudomonas aeruginosa ATCC 27853; unit inferred; read-out: Antibacterial activity (MIC)
Procedure: as §1, §2, §3

[6] = test system: Escherichia coli WT BW 25113; assay: Antibacterial activity (MIC), microbroth dilution; format: cell-based
Procedure: as §1, §2, §3

[7] = test system: Klebsiella pneumoniae ATCC 4352; assay: Antibacterial activity (MIC), microbroth dilution; format: cell-based; conditions: ATCC4352; Klebsiella pneumoniae ATCC 4352; unit inferred; read-out: Antibacterial activity (MIC)
Procedure: as §1, §2, §3

[8] = test system: Methicillin resistant Staphylococcus aureus; assay: Antibacterial activity (MIC), microbroth dilution; format: cell-based; conditions: ATCC 43300 / MRSA; Methicillin resistant Staphylococcus aureus (MRSA ATCC 43300); unit inferred; read-out: Antibacterial activity (MIC)
Procedure: as §1, §2, §3

[9] = test system: Pseudomonas aeruginosa WT PAO1; assay: Antibacterial activity (MIC), microbroth dilution; format: cell-based; conditions: Pseudomonas aeruginosa WT PAO1; unit inferred; read-out: Antibacterial activity (MIC)
Procedure: as §1, §2, §3

[10] = test system: Klebsiella pneumoniae ATCC 13883; assay: Antibacterial activity (MIC), microbroth dilution; format: cell-based; conditions: ATCC13883; Klebsiella pneumoniae ATCC 13883; unit inferred; read-out: Antibacterial activity (MIC)
Procedure: as §1, §2, §3

[11] = test system: Klebsiella pneumoniae ATCC 33495; assay: Antibacterial activity (MIC), microbroth dilution; format: cell-based; conditions: ATCC33495; Klebsiella pneumoniae ATCC 33495; unit inferred; read-out: Antibacterial activity (MIC)
Procedure: as §1, §2, §3

[12] = test system: A. baumannii ATCC 19606 and UW 5075; assay: Outer membrane permeabilisation, nitrocefin hydrolysis; format: cell-based, Acinetobacter baumannii; conditions: PAβN at 100 or 200 µg/mL, nitrocefin hydrolysis at 490 nm
Procedure: A. baumannii ATCC 19606 and the extensively resistant strain UW 5075 were assayed for permeabilisation of the outer membrane by the efflux pump inhibitor PAβN. Nitrocefin was added to the cells that received no treatment (black circles), cells treated with the outer membrane permeabilizer polymyxin B (PMB, red squares) or PAβN at 100 µg/mL (light blue triangles) or 200 µg/mL (dark blue triangles). Nitrocefin hydrolysis by the periplasmic β-lactamase was observed as an increase in absorbance at 490 nm. Representative traces are shown from triplicate experiments performed on different days. Symbols represent the mean of triplicate readings ± SEM.

[13] = test system: Streptococcus pneumoniae (type 3, mucoid strain) ATCC 6303; assay: Antibacterial activity (MIC), microbroth dilution; format: cell-based; conditions: ATCC6303; Streptococcus pneumoniae ATCC 6303; unit inferred; read-out: Antibacterial activity (MIC)
Procedure: as §1, §2, §3

[14] = test system: Streptococcus pyogenes ATCC 10389; assay: Antibacterial activity (MIC), microbroth dilution; format: cell-based; conditions: ATCC10389; Streptococcus pyogenes ATCC 10389; unit inferred; read-out: Antibacterial activity (MIC)
Procedure: as §1, §2, §3

E. coli FtsZ [15] = test system: E. coli FtsZ; design: method as in Domadia et al., 2007; conditions: ref Domadia et al., 2007, read-out: IC50, GTPase activity; cited from earlier work
E. coli = conditions: cited from earlier work
E. coli FtsZ [16] = conditions: E. coli FtsZ; ref Domadia et al., 2007; cited from earlier work
[17] = Acinetobacter baumannii, ATCC19606, A. baumannii ATCC 19606, 18 h, 37°C, read-out: MIC
[18] = Acinetobacter baumannii, XDRUW5075, 18 h
[19] = WTBW25113, Escherichia coli WT BW 25113, unit inferred, read-out: Antibacterial activity (MIC)

## Triton X-100 [reference compound]
Human red blood cells
  Hemolytic activity: completely disrupt the red blood cells

## C[C@@H](O)[C@H]1C(=O)N2C(C(=O)O)=C(SCCN=CN)C[C@H]12 [Imipenem, reference compound]
A. baumannii ATCC 19606 [1]; [17]
  MIC: 1 µg/mL (≈ 3.34 µM)
A. baumannii XDR UW 5075; [18]
  MIC: 128 µg/mL (≈ 428 µM)

## Cc1nc2ccccc2n1CCC(=O)NN=Cc1c(O)ccc2ccccc12 [divin, reference compound]
A. baumannii ATCC 19606 [2]
  Cell morphology: elongated cell shape

## Cc1onc(-c2ccccc2)c1C(=O)N[C@@H]1C(=O)N2[C@@H]1SC(C)(C)[C@@H]2C(=O)O [OXA, oxacillin, reference compound]
[3]
  MIC: > 64 µg/mL
[4]
  MIC: > 16 µg/mL
[5]
  MIC: > 64 µg/mL
[6]; [19]
  MIC: > 64 µg/mL
[7]
  MIC: > 64 µg/mL
[8]
  MIC: 16 µg/mL (≈ 39.9 µM)
[9]
  MIC: > 64 µg/mL
[10]
  MIC: > 64 µg/mL
[11]
  MIC: > 64 µg/mL

## NC(N)=NCCC[C@H](NC(=O)[C@@H](N)Cc1ccccc1)C(=O)Nc1ccc2ccccc2c1 [PAβN, phenylalanine arginine-β-naphthylamide] (H-Phe-Arg-βNA)
[12]
  Damage of the bacterial outer membrane: does not damage the bacterial outer membrane

## C[C@H]1COc2c(N3CCN(C)CC3)c(F)cc3c(=O)c(C(=O)O)cn1c23 [Levofloxacin, reference compound]
A. baumannii ATCC 19606 [1]; [17]
  MIC: 0.5 µg/mL (≈ 1.38 µM)
A. baumannii XDR UW 5075; [18]
  MIC: 8 µg/mL (≈ 22.1 µM)
[3]
  MIC: 0.004 µg/mL (≈ 0.0111 µM)
[4]
  MIC: 1 µg/mL (≈ 2.77 µM)
[13]
  MIC: 1 µg/mL (≈ 2.77 µM)
[5]
  MIC: 1 µg/mL (≈ 2.77 µM)
[6]; Escherichia coli, WTBW25113, read-out: Antibacterial activity (MIC)
  MIC: 0.25 µg/mL (≈ 0.692 µM)
[7]
  MIC: 1 µg/mL (≈ 2.77 µM)
[8]
  MIC: 1 µg/mL (≈ 2.77 µM)
[9]
  MIC: 0.5 µg/mL (≈ 1.38 µM)
[14]
  MIC: 1 µg/mL (≈ 2.77 µM)
[10]
  MIC: 1 µg/mL (≈ 2.77 µM)
[11]
  MIC: 1 µg/mL (≈ 2.77 µM)

## CO[C@H]1/C=C/O[C@@]2(C)Oc3c(C)c(O)c4c(O)c(c(/C=N/N5CCN(C)CC5)c(O)c4c3C2=O)NC(=O)/C(C)=C\C=C\[C@H](C)[C@H](O)[C@@H](C)[C@@H](O)[C@@H](C)[C@H](OC(C)=O)[C@@H]1C [RIF, rifampicin, reference compound]
[3]
  MIC: > 16 µg/mL
[4]
  MIC: 16 µg/mL (≈ 19.4 µM)
[5]
  MIC: 32 µg/mL (≈ 38.9 µM)
[6]; [19]
  MIC: > 16 µg/mL
[7]
  MIC: > 64 µg/mL
[8]
  MIC: 32 µg/mL (≈ 38.9 µM)
[9]
  MIC: 32 µg/mL (≈ 38.9 µM)
[10]
  MIC: 8 µg/mL (≈ 9.72 µM)
[11]
  MIC: 32 µg/mL (≈ 38.9 µM)

## CNC(C)C1CCC(N)C(OC2C(N)CC(N)C(OC3OCC(C)(O)C(NC)C3O)C2O)O1 (stereo not shown) [Gentamicin, reference compound]
A. baumannii ATCC 19606 [1]; Acinetobacter baumannii, ATCC19606, 18 h
  MIC: 16 µg/mL (≈ 33.5 µM)
A. baumannii XDR UW 5075; [18]
  MIC: > 1020 µg/mL

## CC1(C)S[C@@H]2[C@H](NC(=O)[C@H](N)c3ccc(O)cc3)C(=O)N2[C@H]1C(=O)O [Amoxycillin, reference compound]
A. baumannii ATCC 19606 [1]; [17]
  MIC: 64 µg/mL (≈ 175 µM)
A. baumannii XDR UW 5075; [18]
  MIC: 1020 µg/mL (≈ 2800 µM)

## O=C/C=C/c1ccccc1 [cinnamaldehyde]
E. coli FtsZ [15]
  IC50: 5.8 µM
E. coli; ref Domadia et al., 2007, Li et al., 2015a
  MIC: 1000 µg/mL (≈ 7570 µM)
E. coli; ref Domadia et al., 2007
  Mechanism of action (bacteriostatic): bacteriostatic
E. coli FtsZ [16]
  ED50, self-polymerization: 6.9 µM

## Colistin [reference compound]
A. baumannii ATCC 19606 [1]; A. baumannii ATCC 19606, 18 h, 37°C
  MIC: 2 µg/mL
A. baumannii XDR UW 5075; A. baumannii XDR UW 5075, 18 h, 37°C
  MIC: 2 µg/mL
